In patent publication US20260216294A1, “BETA 2-ADRENERGIC RECEPTOR AGONISTS FOR TREATMENT OR PREVENTION OF MUSCLE WASTING” (ATROGI AB, priority 2023, published 2026):

Key:
L6-myotubes [1] = assay: Measurement of intracellular cAMP levels in differentiated L6-myotubes (Biological Example 3); type: cell-based; conditions: 0.25 h
Summary of the method: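 Serum-starved differentiated L6 myotubes stimulated 15 min with test compound at 1×10^−5 M final (isoprenaline as reference) in HBSS with 1% BSA, 5 mM HEPES, 1 mM IBMX, pH 7.4. Cells EtOH-extracted, lysed, and intracellular cAMP measured by AlphaScreen.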

L6-myotubes [2] = assay: Glucose uptake in differentiated L6-myotubes (Biological Example 2); type: cell-based; conditions: read-out: Biological example 2 (GU)
Summary of the method: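 Differentiated L6 myotubes were serum-starved overnight in 0.5% fatty-acid-free BSA and then stimulated with compound or isoprenaline at 1×10^−5 M final. After 1 h 40 min cells were washed and re-dosed in glucose-free medium. Twenty minutes later, uptake of 50 nM ^3H-2-deoxyglucose over 10 min was measured by scintillation counting of NaOH lysates.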

[3] = intracellular cAMP, compound at 10 μM relative to isoproterenol at 10 μM
[4] = glucose uptake, compound at 10 μM relative to isoproterenol at 10 μM
[5] = intracellular cAMP in differentiated L6-myotubes, compound at 10 μM, activity relative to isoproterenol at 10 μM
[6] = glucose uptake in differentiated L6-myotubes, compound at 10 μM, activity relative to isoproterenol at 10 μM

Structure (SMILES) | Emax at 10 µM (L6-myotubes [1]; [3]) [%] | Emax at 10 µM (L6-myotubes [2]; [4]) [%] | Emax at 10 µM (L6-myotubes [1]; [5]) [%] | Emax at 10 µM (L6-myotubes [2]; [6]) [%]
CCCCNCC(O)c1ccc(O)c(Cl)c1 (stereo not shown) [Compound 20, 2-(butylamino)-1-(3-chloro-4-hydroxyphenyl)-1-ethanol] | < 25 | 25 to 50 | – | –
CC(C)(NC[C@H](O)c1cncc(F)c1)[C@H]1CC[C@@H](O)CC1 [Compound 286, (R)-1-(5-fluoro-3-pyridyl)-2-{1-methyl-1-[(1s,4S)-4-hydroxycyclohexyl]ethylamino}-1-ethanol] | – | – | < 25 | 25 to 50
CC(C)(C[C@H]1CC[C@@H](NS(=O)(=O)C(F)(F)F)CC1)NC[C@H](O)c1cccc(F)c1 [Compound 493, (R)-2-{1,1-dimethyl-2-[(1s,4S)-4-(trifluoromesylamino)cyclohexyl]ethylamino}-1-(m-fluorophenyl)-1-ethanol] | – | – | < 25 | 25 to 50
CC1(C)CC[C@H]([C@H](O)c2ccc(F)cc2)N1 [Compound 173] | < 25 | 50 to 75 | – | –
COc1ccc(C[C@@H]2CC[C@H]([C@H](O)c3cccc(F)c3)N2)cc1 [Compound 373, (R)-{(2R,5S)-5-[(p-methoxyphenyl)methyl]-2-pyrrolidinyl}(m-fluorophenyl)methanol] | – | – | 25 to 50 | > 75
CCCCNCC(O)c1cc(Cl)c(N)c(C(F)(F)F)c1 (stereo not shown) [Compound 32, 1-[4-amino-3-chloro-5-(trifluoromethyl)phenyl] -2-(butylamino)-1-ethanol] | 25 to 50 | > 75 | – | –
O[C@@H](c1cncc(F)c1)C12CCC(COCc3ccc(OC(F)(F)F)cc3)(CC1)N2 [Compound 489, (S)-(5-fluoro-3-pyridyl)(4-{[(p-trifluoromethoxyphenyl)methoxy]methyl}-7-azabicyclo[[2.2.1]]hept-1-yl)methanol] | – | – | < 25 | < 25
CCCCNCC(O)c1ccc(F)c(NC(C)=O)c1F (stereo not shown) [Compound 42, N-{3-[2-(butylamino)-1-hydroxyethyl]-2,6-difluorophenyl}acetamide] | < 25 | 25 to 50 | – | –
CC12CC(C1)[C@H]([C@@H](O)c1cncc(F)c1)N2 [Compound 222, (S)-{(R)-1-methyl-2-azabicyclo[[2.1.1]]hex-3-yl}(5-fluoro-3-pyridyl)methanol] | – | – | < 25 | < 25
CC(C)(C[C@H]1CC[C@@H](NC(=O)OC(C)(C)C)CC1)NC[C@H](O)c1cccc(C#N)n1 [Compound 414, (1R,4s)-4-{2-[(S)-2-(6-cyano-2-pyridyl)-2-hydroxyethylamino]-2-methylpropyl}cyclohexly 2-methyl-2-propanecarbamate] | – | – | < 25 | 50 to 75
CS(=O)(=O)N[C@H]1CC[C@@H](CNC[C@H](O)c2cccc(F)c2)CC1 [Compound 312, (R)-1-(m-fluorophenyl)-2-({[(1s,4S)-4-(mesylamino)cyclohexyl]methyl}amino)-1-ethanol] | – | – | < 25 | 50 to 75
CC12CC(C1)[C@H]([C@H](O)c1cccc(F)c1)N2 [Compound 186] | 50 to 75 | > 75 | – | –
COC(=O)[C@H]1CC[C@@H](C(C)(C)NC[C@H](O)c2cncc(F)c2)CC1 [Compound 321, (1S,4s)-8-[(R)-2-(5-fluoro-3-pyridyl)-2-hydroxyethylamino]-7-methoxy-p-menthan-7-one] | – | – | < 25 | 50 to 75
CC1(C)CC[C@H]([C@@H](O)c2ccccc2F)N1 [Compound 174, (S)-[(R)-5,5-dimethyl-2-pyrrolidinyl](o-fluorophenyl)methanol] | < 25 | < 25 | – | –
CO[C@H]1CC[C@H](CCCNC[C@H](O)c2cncc(F)c2)CC1 [Compound 261, (R)-1-(5-fluoro-3-pyridyl)-2-{3-[(1r,4S)-4-methoxycyclohexyl]propylamino}-1-ethanol] | – | – | < 25 | < 25
CC(C)(C[C@H]1CC[C@@H](NC(=O)C(C)(C)C)CC1)NC[C@H](O)c1cncc(F)c1 [Compound 455] | – | – | < 25 | 50 to 75
CC12CCC([C@@H](O)c3ccccc3F)(CC1)N2 [Compound 180, (S)-(o-fluorophenyl)(4-methyl-7-azabicyclo[[2.2.1]]hept-1-yl)methanol] | < 25 | > 75 | – | –
CCC[C@H]1CCC[C@H]([C@H](O)c2cccc(F)c2)N1 [Compound 69] | < 25 | 50 to 75 | – | –
CC1(C)CC[C@H]([C@@H](O)c2cccc(Cl)c2)N1 [Compound 153, (S)-[(R)-5,5-dimethyl-2-pyrrolidinyl](m-chlorophenyl)methanol] | < 25 | 25 to 50 | – | –

Structure (SMILES) | Emax at 10 µM (L6-myotubes [1]; [3]) [%] | Emax at 10 µM (L6-myotubes [2]; [4]) [%] | Emax at 10 µM (L6-myotubes [1]; [5]) [%] | Emax at 10 µM (L6-myotubes [2]; [6]) [%]
CN([C@H]1CC[C@@H](CC(C)(C)NC[C@H](O)c2cccc(F)c2)CC1)S(C)(=O)=O [Compound 498, (R)-2-{1,1-dimethyl-2-[(1s,4S)-4-(N-mesyl-N-methylamino)cyclohexyl]ethylamino}-1-(m-fluorophenyl)-1-ethanol] | – | – | < 25 | 25 to 50
CCC[C@@H]1CC[C@H]([C@H](O)c2cccc(Cl)c2)N1 [Compound 141, (R)-[(2R,5R)-5-propyl-2-pyrrolidinyl](m-chlorophenyl)methanol] | < 25 | 50 to 75 | – | –
CCC[C@H]1CC[C@@H]([C@@H](O)c2cccc(F)c2)N1 [Compound 131, (S)-[(2S,5S)-5-propyl-2-pyrrolidinyl](m-fluorophenyl)methanol] | < 25 | 50 to 75 | – | –
CC(=O)N[C@H]1CC[C@H](CNC[C@H](O)c2cncc(F)c2)CC1 [Compound 309] | – | – | < 25 | 50 to 75
Oc1ccc(C(O)CNC2CCCC2)cc1 (stereo not shown) [Compound 10, p-[2-(cyclopentylamino)-1-hydroxyethyl]phenol] | < 25 | 50 to 75 | – | –
CC12CC(C1)[C@H]([C@H](O)c1ccccc1F)N2 [Compound 210] | – | – | > 75 | > 75
CC(C)(NC[C@H](O)c1cccc(F)c1)[C@H]1CC[C@@H](OCc2ccccc2)CC1 [Compound 280, (R)-1-(m-fluorophenyl)-2-{1-methyl-1-[(1s,4S)-4-(benzyloxy)cyclohexyl]ethylamino}-1-ethanol] | – | – | < 25 | > 75
CC(C)(C[C@H]1CC[C@H](C(=O)O)CC1)NC[C@H](O)c1cccc(F)c1 [Compound 355, (1R,4r)-4-{2-[(R)-2-(m-fluorophenyl)-2-hydroxyethylamino]-2-methylpropyl} cyclohexanecarboxylic acid] | – | – | < 25 | 50 to 75
O[C@@H](CNC1(C(F)(F)F)CC1)c1cccc(F)c1 [Compound 118, (R)-1-(m-fluorophenyl)-2-[1-(trifluoromethyl)cyclopropylamino]-1-ethanol] | < 25 | 50 to 75 | – | –
CC1(C)CC[C@H]([C@@H](O)c2ccc(F)cc2)N1 [Compound 172] | < 25 | < 25 | – | –
O[C@@H](CNCCC[C@H]1CC[C@@H](O)CC1)c1cncc(F)c1 [Compound 304, (R)-1-(5-fluoro-3-pyridyl)-2-{3-[(1s,4R)-4-hydroxycyclohexyl]propylamino}-1-ethanol] | – | – | < 25 | 50 to 75
CO[C@H]1CC[C@H](CC(C)(C)NC[C@H](O)c2cccc(F)c2)CC1 [Compound 249, (R)-2-{1,1-dimethyl-2-[(1r,4R)-4-methoxycyclohexyl]ethylamino}-1-(m-fluorophenyl)-1-ethanol] | – | – | < 25 | > 75
CC12CC(C1)[C@H]([C@H](O)c1cncc(F)c1)N2 [Compound 220, (R)-{(R)-1-methyl-2-azabicyclo[[2.1.1]]hex-3-yl}(5-fluoro-3-pyridyl)methanol] | – | – | < 25 | > 75
CCC[C@@H]1CCC[C@@H]([C@@H](O)c2cccc(O)c2)N1 [Compound 113] | < 25 | 50 to 75 | – | –
CC1(C)CC[C@H]([C@H](O)c2ccccc2Cl)N1 [Compound 152, (R)-[(R)-5,5-dimethyl-2-pyrrolidinyl](o-chlorophenyl)methanol] | < 25 | > 75 | – | –
CC(=O)N[C@H]1CC[C@H](C[C@@H]2CC[C@H]([C@@H](O)c3cccc(F)c3)N2)CC1 [Compound 486] | – | – | < 25 | 50 to 75
CC(C)(C)NC[C@H](O)c1cccc(F)c1 [Compound 54, (R)-2-(tert-butylamino)-1-(m-fluorophenyl)-1-ethanol] | < 25 | > 75 | – | –
CCOC(=O)CO[C@H]1CC[C@H](C(C)(C)NC[C@H](O)c2cncc(F)c2)CC1 [Compound 409, ethyl[[(1R,4r)-4-{1-[(R)-2-(5-fluoro-3-pyridyl)-2-hydroxyethylamino]-1-methylethyl}cyclohexyloxy]]acetate] | – | – | < 25 | > 75
O[C@@H](CNCC[C@H]1CC[C@@H](OCc2ccccc2)CC1)c1cccc(F)c1 [Compound 287, (R)-1-(m-fluorophenyl)-2-{2-[(1s,4S)-4-(benzyloxy)cyclohexyl]ethylamino}-1-ethanol] | – | – | < 25 | 50 to 75
